The text below walks through data of patent US20180170941A1 (priority 2016, published 2018).

Structures are written as SMILES.

The target of the first experiment is T1, α5β3γ2 GABAA receptors (Ltk cell membranes) (Homo sapiens, UniProt P18507+P31644).
T1 construct: membranes
T1 sequence (P31644 32-462): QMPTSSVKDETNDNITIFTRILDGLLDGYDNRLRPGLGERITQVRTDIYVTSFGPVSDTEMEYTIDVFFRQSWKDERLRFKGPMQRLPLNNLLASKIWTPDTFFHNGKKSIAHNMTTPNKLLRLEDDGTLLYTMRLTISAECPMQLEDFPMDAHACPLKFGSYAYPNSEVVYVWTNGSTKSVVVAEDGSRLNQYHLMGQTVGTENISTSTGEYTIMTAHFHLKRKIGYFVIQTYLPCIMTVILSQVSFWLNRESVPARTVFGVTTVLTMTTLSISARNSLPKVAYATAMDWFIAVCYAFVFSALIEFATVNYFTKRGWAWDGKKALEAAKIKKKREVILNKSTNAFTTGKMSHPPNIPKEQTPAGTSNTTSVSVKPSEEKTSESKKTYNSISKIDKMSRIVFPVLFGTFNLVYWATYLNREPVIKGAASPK
T1 sequence (P28472 26-473 partner): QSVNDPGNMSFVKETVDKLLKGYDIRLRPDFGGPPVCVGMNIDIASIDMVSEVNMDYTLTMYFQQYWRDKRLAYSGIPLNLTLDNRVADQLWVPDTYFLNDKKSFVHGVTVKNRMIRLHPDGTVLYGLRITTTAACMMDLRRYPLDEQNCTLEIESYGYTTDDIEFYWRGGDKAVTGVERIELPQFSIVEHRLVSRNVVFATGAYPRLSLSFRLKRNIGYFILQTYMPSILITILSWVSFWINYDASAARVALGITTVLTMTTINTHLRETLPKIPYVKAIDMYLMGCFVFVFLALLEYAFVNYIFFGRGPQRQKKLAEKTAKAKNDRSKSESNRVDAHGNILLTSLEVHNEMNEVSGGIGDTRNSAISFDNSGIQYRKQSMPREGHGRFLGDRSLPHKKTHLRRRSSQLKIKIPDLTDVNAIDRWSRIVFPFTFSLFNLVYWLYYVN
T1 sequence (P18507 40-475): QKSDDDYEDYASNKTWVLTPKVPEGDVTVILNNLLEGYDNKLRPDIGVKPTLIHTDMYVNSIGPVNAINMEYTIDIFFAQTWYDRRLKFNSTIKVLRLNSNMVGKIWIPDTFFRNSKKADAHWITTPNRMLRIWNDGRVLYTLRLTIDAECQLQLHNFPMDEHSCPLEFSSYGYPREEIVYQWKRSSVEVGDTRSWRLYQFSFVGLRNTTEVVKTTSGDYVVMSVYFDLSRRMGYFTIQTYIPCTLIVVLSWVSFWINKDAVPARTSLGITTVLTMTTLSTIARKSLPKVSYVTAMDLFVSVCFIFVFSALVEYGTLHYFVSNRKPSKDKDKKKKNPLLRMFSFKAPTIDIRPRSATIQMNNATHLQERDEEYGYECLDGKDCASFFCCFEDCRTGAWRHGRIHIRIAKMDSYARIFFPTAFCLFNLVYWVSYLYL
In words: Binding activity of test compounds on GABAAR: inhibition of [3H]Ro15-1788 binding.
Conditions: not given
In outline:
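Membranes from dexamethasone-induced Ltk cells (α5 line: 0.5 μM, 1 day); binding with [3H]Ro15-1788 for 1 h at 4 °C in 50 mM KH2PO4, 1 mM EDTA, 0.2 M KCl, pH 7.4, 0.2 mg/ml α5 protein. Nonspecific binding defined by 10 μM diazepam; filtration, scintillation counting, triplicates.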
`CC(C)OCc1nnc2n1Cc1c(/C=C/c3ccccc3)ncn1-c1ccc(Cl)cc1-2` [Compound 446] gave an inhibition constant Ki greater than 1000 nM.
Same read-out and setting: the value for `CC(C)OCc1nnc2n1Cc1c(/C=C/c3ccc(F)cc3)ncn1-c1ccc(Cl)cc1-2` [Compound 447] was greater than 1000 nM.

Still in this experiment, the particulars now being: GABA α5 Binding Ki Values, inhibition of [3H]Ro15-1788 binding; reported as ranges.
Turning to `Clc1ccc2c(c1)-c1nnc(COCc3ccccc3)n1Cc1c(-c3ncco3)ncn1-2` [Compound 350], the Ki is less than 100 nM.
In the case of `C#Cc1ncn2c1Cn1c(COCc3ccccc3)nnc1-c1cc(Cl)ccc1-2` [Compound 351], the Ki is less than 100 nM.
For the compound `CC#Cc1ncn2c1Cn1c(COCc3ccccc3)nnc1-c1cc(Cl)ccc1-2` [Compound 352], the Ki was in the range of 100 to 1000 nM.
The same measure, in the same setting: with `CC(C)[C@H]1COC(c2ncn3c2Cc2cnnn2-c2cc(Cl)ccc2-3)=N1` [Compound 363] the figure was 100 to 1000 nM; with `CC1(C)COC(c2ncn3c2Cc2cnnn2-c2cc(Cl)ccc2-3)=N1` [Compound 364], less than 100 nM; with `COc1ccc2c(c1)-n1nncc1Cc1c(C3=N[C@@H](c4ccccc4F)CO3)ncn1-2` [Compound 366], less than 100 nM.
Same read-out and setting: the value for `COc1ccc2c(c1)-n1nncc1Cc1c(C3=N[C@@H](c4ccc(Cl)cc4)CO3)ncn1-2` [Compound 368] was less than 100 nM; that for `COc1ccc2c(c1)-n1nncc1Cc1c(C3=N[C@@H](c4cc(F)ccc4F)CO3)ncn1-2` [Compound 369] was less than 100 nM.
Turning to `COc1ccc2c(c1)-n1nncc1Cc1c(C3=N[C@@H](c4cccc5ccccc45)CO3)ncn1-2` [Compound 370], the Ki lay in the range of 100 to 1000 nM.
Compound `COc1ccc2c(c1)-n1nncc1Cc1c(C3=N[C@@H](c4cccc(C(F)(F)F)c4)CO3)ncn1-2` [Compound 371] gave a Ki of 100 to 1000 nM.
In the case of `COc1ccc2c(c1)-n1nncc1Cc1c(C3=N[C@@H](c4ccc(C(F)(F)F)cc4)CO3)ncn1-2` [Compound 372], the inhibition constant (Ki) was less than 100 nM.
In the case of `COc1ccc2c(c1)-n1nncc1Cc1c(C3=N[C@@H](c4ccccc4C)CO3)ncn1-2` [Compound 373], the Ki was less than 100 nM.
On to `COc1ccc2c(c1)-n1nncc1Cc1c(C3=N[C@@H](c4ccc(Cl)cc4Cl)CO3)ncn1-2` [Compound 374], for which the Ki lay in the range of 100 to 1000 nM.
In the case of `COc1ccc2c(c1)-n1nncc1Cc1c(C3=N[C@@H](c4ccc(F)c(C(F)(F)F)c4)CO3)ncn1-2` [Compound 375], the inhibition constant (Ki) is less than 100 nM.
`Cc1nnn2c1Cc1c(C3=N[C@@H](c4ccccc4)CO3)ncn1-c1ccc(Cl)cc1-2` [Compound 376] yielded an inhibition constant (Ki) of 100 to 1000 nM.
For the compound `Cc1nnn2c1Cc1c(C3=N[C@H](c4ccccc4)CO3)ncn1-c1ccc(Cl)cc1-2` [Compound 377], the inhibition constant (Ki) is less than 100 nM.
Still for that read-out and setting: the value for `Cc1nnn2c1Cc1c(C3=N[C@@H](c4ccccc4F)CO3)ncn1-c1ccc(Cl)cc1-2` [Compound 378] was 100 to 1000 nM; that for `Cc1nnn2c1Cc1c(C3=N[C@@H](c4ccc(F)cc4)CO3)ncn1-c1ccc(Cl)cc1-2` [Compound 379] was 100 to 1000 nM; that for `COc1ccc2c(c1)-n1nncc1Cc1c(C3=N[C@@H](C(C)C)CO3)ncn1-2` [Compound 382] was 100 to 1000 nM.
As to `COc1ccc2c(c1)-n1nncc1Cc1c(C3=NCCO3)ncn1-2` [Compound 383], the Ki is less than 100 nM.
Same read-out and setting: with `C#Cc1ccc2c(c1)-c1nnc(COC)n1Cc1c(C3=N[C@@H](C(C)C)CO3)ncn1-2` [Compound 384] the figure was 100 to 1000 nM.
For `Clc1ccc2c(c1)-n1nncc1Cc1c(-c3nc(-c4ccccc4)co3)ncn1-2` [Compound 385], the inhibition constant (Ki) is less than 100 nM.
In turn, `FC(F)(F)c1ccc(-c2coc(-c3ncn4c3Cc3cnnn3-c3cc(Cl)ccc3-4)n2)cc1` [Compound 386] came in with an inhibition constant (Ki) greater than 1000 nM.
As to `CC(C)c1coc(-c2ncn3c2Cc2cnnn2-c2cc(Cl)ccc2-3)n1` [Compound 387], the Ki is less than 100 nM.
Compound `COc1ccc2c(c1)-n1nncc1Cc1c(-c3nc(-c4ccccc4)co3)ncn1-2` [Compound 388] gave a Ki of less than 100 nM.
On the same count and under the same terms, the value for `COc1ccc2c(c1)-n1nncc1Cc1c(-c3nc(-c4cccc(C(F)(F)F)c4)co3)ncn1-2` [Compound 389] was greater than 1000 nM; that for `COc1ccc2c(c1)-n1nncc1Cc1c(-c3nc(-c4ccc(C(F)(F)F)cc4)co3)ncn1-2` [Compound 390] was greater than 1000 nM; that for `COc1ccc2c(c1)-n1nncc1Cc1c(-c3nc(-c4ccc(F)c(C(F)(F)F)c4)co3)ncn1-2` [Compound 392] was 100 to 1000 nM.
`Clc1ccc2c(c1)-n1nncc1Cc1c(-c3ncco3)ncn1-2` [Compound 393] had an inhibition constant Ki of less than 100 nM.
For `COc1ccc2c(c1)-n1nncc1Cc1c(-c3nc(C(C)C)co3)ncn1-2` [Compound 394], the Ki is less than 100 nM.
For `Clc1ccc2c(c1)-n1nncc1Cc1c(C#Cc3ccccc3)ncn1-2` [Compound 395], the Ki is less than 100 nM.
Compound `Cc1ccccc1C#Cc1ncn2c1Cc1cnnn1-c1cc(Cl)ccc1-2` [Compound 396] showed a Ki of less than 100 nM.
Consider `COc1ccc(C#Cc2ncn3c2Cc2cnnn2-c2cc(Cl)ccc2-3)cc1` [Compound 397], for which the Ki is less than 100 nM.
`FC(F)(F)CC#Cc1ncn2c1Cc1cnnn1-c1cc(Cl)ccc1-2` [Compound 398]: the inhibition constant Ki was less than 100 nM.
As for `Fc1ccccc1C#Cc1ncn2c1Cc1cnnn1-c1cc(Cl)ccc1-2` [Compound 399], the Ki is less than 100 nM.
The same measure, in the same setting: the value for `Clc1ccc2c(c1)-n1nncc1Cc1c(C#Cc3ccccn3)ncn1-2` [Compound 401] was less than 100 nM; that for `Clc1ccc2c(c1)-n1nncc1Cc1c(C#Cc3cccnc3)ncn1-2` [Compound 402] was less than 100 nM; that for `C#Cc1ncn2c1Cc1cnnn1-c1cc(OC)ccc1-2` [Compound 403] was less than 100 nM.
Compound `COc1ccc2c(c1)-n1nncc1Cc1c(C#Cc3ccccc3)ncn1-2` [Compound 404] yielded a Ki of less than 100 nM.
Still for that read-out and setting: the value for `COc1ccc2c(c1)-n1nncc1Cc1c(C#Cc3ccccc3C)ncn1-2` [Compound 405] was less than 100 nM; that for `COc1ccc2c(c1)-n1nncc1Cc1c(C#Cc3ccc(C(F)(F)F)cc3)ncn1-2` [Compound 406] was less than 100 nM; that for `COc1ccc2c(c1)-n1nncc1Cc1c(C#Cc3cccnc3)ncn1-2` [Compound 407] was less than 100 nM.
The compound `COc1ccc2c(c1)-n1nncc1Cc1c(C#Cc3ccccn3)ncn1-2` [Compound 408] showed a Ki of less than 100 nM.
The compound `COc1cccc(C#Cc2ncn3c2Cc2cnnn2-c2cc(OC)ccc2-3)c1` [Compound 409] returned a Ki of less than 100 nM.
Take `CC#Cc1ncn2c1Cc1cnnn1-c1cc(OC)ccc1-2` [Compound 410]: the Ki was less than 100 nM.
For the compound `COc1ccc2c(c1)-n1nncc1Cc1c(C#Cc3ccccc3F)ncn1-2` [Compound 411], the inhibitory constant (Ki) is less than 100 nM.
For `COc1ccc2c(c1)-n1nncc1Cc1c(C#Cc3ccc(OC(F)(F)F)cc3)ncn1-2` [Compound 412], the Ki was less than 100 nM.
On to `COc1ccc2c(c1)-n1nncc1Cc1c(C#CCc3ccccc3)ncn1-2` [Compound 413], for which the inhibition constant Ki is less than 100 nM.
Same read-out and setting: the value for `COc1ccc(C#Cc2ncn3c2Cc2cnnn2-c2cc(OC)ccc2-3)cc1` [Compound 414] was less than 100 nM; that for `CC(C)C#Cc1ncn2c1Cc1cnnn1-c1cc(Cl)ccc1-2` [Compound 415] was less than 100 nM.
`CC#Cc1ncn2c1Cc1cnnn1-c1cc(Cl)ccc1-2` [Compound 416] returned a Ki of less than 100 nM.
`COc1ccc2c(c1)-n1nncc1Cc1c(C#CCc3cccc(Cl)c3)ncn1-2` [Compound 417]: the inhibitory constant (Ki) was less than 100 nM.
The compound `COc1ccc2c(c1)-n1nncc1Cc1c(C#CCc3cccc(OC(F)(F)F)c3)ncn1-2` [Compound 418] had a Ki of less than 100 nM.
Compound `COc1ccc2c(c1)-n1nncc1Cc1c(C#CCc3cccc(F)c3)ncn1-2` [Compound 419] yielded a Ki of less than 100 nM.
Compound `COc1ccc2c(c1)-n1nncc1Cc1c(C#CCc3ccccc3OC(F)(F)F)ncn1-2` [Compound 420] came in with a Ki of less than 100 nM.
On the same count and under the same terms, the value for `COCc1nnc2n1Cc1c(C#CCc3cccc(F)c3)ncn1-c1ccc(Cl)cc1-2` [Compound 421] was less than 100 nM; that for `COCc1nnc2n1Cc1c(C#CCc3cccc(Cl)c3)ncn1-c1ccc(Cl)cc1-2` [Compound 422] was less than 100 nM.
For `COCc1nnc2n1Cc1c(C#CCc3cccc(OC(F)(F)F)c3)ncn1-c1ccc(Cl)cc1-2` [Compound 423], the inhibition constant Ki was less than 100 nM.
`COc1ccc2c(c1)-n1nncc1Cc1c(C#CC(C)C)ncn1-2` [Compound 424] registered an inhibition constant (Ki) of less than 100 nM.
The same measure, in the same setting: with `Cc1noc(-c2ncn3c2Cc2cnnn2-c2cc(Cl)ccc2-3)n1` [Compound 425] the figure was less than 100 nM; with `CC(C)c1noc(-c2ncn3c2Cc2cnnn2-c2cc(Cl)ccc2-3)n1` [Compound 426], less than 100 nM; with `COCc1nnc2n1Cc1c(-c3noc(C)n3)ncn1-c1ccc(Cl)cc1-2` [Compound 427], less than 100 nM.
Compound `O=C(C#Cc1ncn2c1Cc1cnnn1-c1cc(Cl)ccc1-2)c1ccccc1` [Compound 448] came in with an inhibition constant Ki of less than 100 nM.
Same read-out and setting: the value for `C#Cc1ncn2c1C(Cc1ccccc1)c1cnnn1-c1cc(OC)ccc1-2` (stereo not shown) [Compound 449] was greater than 1000 nM.

Still in this experiment, the particulars now being: inhibition of [3H]Ro15-1788 binding; reported as ranges.
`COCc1nnc2n1Cc1c(COc3ccccc3)ncn1-c1ccc(Cl)cc1-2` [Compound 429] had an inhibition constant Ki greater than 1000 nM.
On the same count and under the same terms, the value for `COCc1nnc2n1Cc1c(COCc3ccccc3)ncn1-c1ccc(Cl)cc1-2` [Compound 430] was greater than 1000 nM; that for `COCc1nnc2n1Cc1c(COCc3ccccc3F)ncn1-c1ccc(Cl)cc1-2` [Compound 431] was greater than 1000 nM.
The same measure, in the same setting: the value for `COCc1nnc2n1Cc1c(COCc3cccc(F)c3)ncn1-c1ccc(Cl)cc1-2` [Compound 432] was greater than 1000 nM.
As for `COCc1nnc2n1Cc1c(COc3ccccc3F)ncn1-c1ccc(Cl)cc1-2` [Compound 433], the Ki is greater than 1000 nM.
Same read-out and setting: the value for `COCc1nnc2n1Cc1c(COc3cccc(F)c3)ncn1-c1ccc(Cl)cc1-2` [Compound 434] was greater than 1000 nM; that for `COCc1nnc2n1Cc1c(COc3ccc(F)cc3)ncn1-c1ccc(Cl)cc1-2` [Compound 435] was greater than 1000 nM.

As usually defined, the Ki is a dissociation constant, usually derived from enzyme kinetics or from competition with a known ligand.
